Test results from patent publication US20240238380A1, “COMPOSITION FOR COMBINATION THERAPY COMPRISING GROWTH DIFFERENTIATION FACTOR-15 VARIANT AND GLUCAGON-LIKE PEPTIDE-1 RECEPTOR AGONIST” (YUHAN CORPORATION, priority 2021, published 2024).
Marks after values point to notes of the source that are not given here.

Assays:
Assay type in all cases: in vivo
[1] = Anti-obesity effect alone and in combination with semaglutide in diet-induced obese (DIO) mice (Example 4); conditions: for Change in body weight (%) vs. day 0, Maximum efficacy: 8 weeks
Excerpt: Diet-induced obese (DIO) mice, obtained by feeding mice with high-fat food, are characterized by obesity, hyperglycemia, and insulin resistance. Diet-induced obese mice (Taconic, USA) resulting from feeding C57BL/6N mice with high-fat food (60 kcal % fat, Research Diets, Cat #D12492, USA) for 8 weeks were purchased from Raon Bio (Animal Inc., Republic of Korea). The diet-induced obese mice were additionally fed with 60% high-fat food for 5 weeks after arrival, and then used in the present test. On the day before drug treatment, the mice were grouped based on the average body weight of individual mice (n=6 per group), after which 10 and 30 nmol/kg of FM9-6+Fc_hole alone, 10 and 30 nmol/kg of semaglutide (long-acting GLP-1 derivative, SEQ ID NO: 114) alone as a control drug, and FM9-6+Fc_hole and semaglutide were administered subcutaneously every 2 days (Q2D) for a total of 8 weeks in a combination of 10+10 and 30+30 nmol/kg. The semaglutide that was used in the test was Ozempic® (semaglutide) from Novo NorDisk. Here, for vehicle treatment, DPBS (Dulbecco's phosphate-buffered saline, Gibco, USA) was subcutaneously administered every 2 days (Q2D). Body weight was measured every 2 days from the first day of drug treatment to day 54, and the results thereof are shown in Table 4 below.

[2] = Anti-obesity effect alone and in combination with semaglutide or tirzepatide in DIO mice (Example 7); conditions: 10 nmol/kg s.c. Q3D
Excerpt: Diet-induced obese (DIO) mice, obtained by feeding mice with high-fat diet, are characterized by obesity, hyperglycemia, and insulin resistance. Diet-induced obese mice (Taconic, USA) resulting from feeding C57BL/6N mice with high-fat food (60 kcal % fat, Research Diets, Cat #D12492, USA) for 8 weeks were purchased from Raon Bio (Animal Inc., Republic of Korea). The diet-induced obese mice were additionally fed with 60% high-fat food for 5 weeks after arrival, and then used in the present test. On the day before drug treatment, the mice were grouped based on the average body weight of individual mice (n=6 per group), after which 0.1 and 1 nmol/kg of FM9-6+Fc_hole alone, 10 nmol/kg of semaglutide (long-acting GLP-1 derivative, SEQ ID NO: 114) and 10 nmol/kg of tirzepatide (long-acting GLP-1/GIP derivative, SEQ ID NO: 117) alone as control drugs, FM9-6+Fc_hole and semaglutide at doses of 0.1+10 and 1+10 nmol/kg in combination, and FM9-6+Fc_hole and tirzepatide at doses of 1+10 nmol/kg in combination were subcutaneously administered thereto every 3 days (Q3D) for a total of 4 weeks. The semaglutide that was used in the test was Ozempic® (semaglutide) from Novo NorDisk, and the tirzepatide that was used was a material synthesized by MedChemExpress (HY-P1731B, USA). Here, DPBS (Dulbecco's phosphate-buffered saline, Gibco, USA) was administered for vehicle treatment, and, during the experimental period (26 days), body weight was measured every day and food intake was measured every 3 days.

[3] = Anti-obesity and metabolic parameter effects alone and in combination with large dose of semaglutide in ob/ob mice (Example 6); conditions: 30 nmol/kg s.c. Q3D
Excerpt: 5-week-old male ob/ob mice (Jackson Laboratory, USA) were purchased from Raon Bio (Animal Inc., Republic of Korea). The ob/ob mice were acclimatized with normal chow or normal chow diet (Teklad Certified Irradiated Global 18% Protein Rodent Diet, 2918C, Harlan Co., USA) for 5 weeks, and drug treatment was started at 10 weeks of age. On the day before drug treatment, the mice were grouped based on the body weight of individual mice and random blood glucose levels determined by sampling at the tail vein (n=6 per group). Thereafter, 1 nmol/kg of FM9-6+Fc_hole alone, 30 nmol/kg of semaglutide alone, and FM9-6+Fc_hole and semaglutide in combination (1+30 nmol/kg) were subcutaneously administered thereto a total of 9 times every 3 days (Q3D), and body weight, food intake, and non-fasting blood glucose were measured every day or every 3 days during the experimental period (24 days). Here, DPBS (Dulbecco's phosphate-buffered saline, Gibco, USA) was administered for vehicle treatment.

[4] = Inhibitory effect on gastric emptying (acetaminophen exposure) in normal rats (Example 8); conditions: rats; for gastric emptying (in words): vs. negative control
Procedure: Therefore, this example was performed to investigate the inhibitory effect on gastric emptying when the novel long-acting GDF15 fusion protein was administered at the doses equal to the effective dose, higher than the maximum effective dose, or in combination with a GLP-1 receptor agonist to rats. 6-week-old male SD rats (Orient Bio, Republic of Korea) were purchased from Hallym Lab. Animal Inc., Republic of Korea. Animals were acclimated for 7 days. On the day of drug administration, the rats were grouped based on the average body weight of individual rats (n=5 per group) and fasted for at least 6 hours before oral administration of acetaminophen. Then, 0.1, 1, and 10 nmol/kg of FM9-6+Fc_hole, 10 nmol/kg of semaglutide (long-acting GLP-1 derivative, SEQ ID NO: 114), and combination of FM9-6+Fc_hole and semaglutide (1+10 nmol/kg) were subcutaneously administered. The semaglutide was Ozempic® (semaglutide) from Novo NorDisk. As a negative control drug, D-PBS (normal vehicle) was subcutaneously administered, and as a positive control drug, 30 mg/kg of loperamide was orally administered 45 minutes before acetaminophen administration. On 3, 24 and 72 hours after a single dose of the test articles, acetaminophen was orally administered at 100 mg/kg to rats, and blood samples were collected before and at 30, 60, 90, 120 and 150 minutes after acetaminophen administration. The plasma concentration of acetaminophen was analyzed, and the pharmacokinetic profiles and the systemic exposures of acetaminophen were compared to evaluate the inhibitory effect on gastric emptying among the groups.

[5] = Anti-obesity effect by repeated administration alone and in combination with semaglutide in ob/ob mice (Example 5)
Excerpt: The ob/ob mouse has a mutation in the leptin gene resulting in leptin deficiency, and are characterized by hyperglycemia, insulin resistance, overeating, and obesity. 5-week-old male ob/ob mice (Jackson Laboratory, USA) were purchased from Raon Bio (Animal Inc., Republic of Korea). The ob/ob mice were acclimatized with normal food (Teklad Certified Irradiated Global 18% Protein Rodent Diet, 2918C, Harlan Co., USA) for 4 weeks, and drug treatment was started at 9 weeks of age. On the day before drug treatment, the mice were grouped based on the body weight of individual mice and random blood glucose levels determined by sampling at the tail vein (n=6 per group). Thereafter, 1 and 10 nmol/kg of FM9-6+Fc_hole alone, 10 and 30 nmol/kg of semaglutide alone, and FM9-6+Fc_hole and semaglutide at doses of 1+10 and 10+10 nmol/kg in combination were subcutaneously administered thereto a total of 10 times every 3 days (Q3D), and body weight and food intake were measured every day or every 3 days during the experimental period (29 days). Here, DPBS (Dulbecco's phosphate-buffered saline, Gibco, USA) was administered for vehicle treatment.

## semaglutide [reference compound]
[1]; 10 nmol/kg s.c. Q2D
  Change in body weight (%) vs. day 0, Maximum efficacy: −26.71 (On Day 30)**** %
  Change in body weight (%) vs. day 0, Efficacy on Day 54: −17.34**** %
[1]; 30 nmol/kg s.c. Q2D
  Change in body weight (%) vs. day 0, Maximum efficacy: −28.13 (On Day 21)**** %
  Change in body weight (%) vs. day 0, Efficacy on Day 54: −13.40**** %
[2]; 4 weeks
  Change in body weight (%) vs. day 0, Maximum efficacy: −18.95 (On Day 19)**** %
[2]; Day 26
  Change in body weight (%) vs. day 0, Efficacy on Day 26: −17.69**** %
[3]
  Change in body weight (%) vs. ob/ob control, Efficacy on Day 24: −10.08**** %
  Mean of random blood glucose levels (mg/dL), Efficacy on Day 24: 155.7**** mg/dL
[4]; 10 nmol/kg s.c. single dose, acetaminophen 3 hr after dose
  AUClast of acetaminophen (μg · min/mL), 3 hr: 266.43*** μg · min/mL
[4]; 10 nmol/kg s.c. single dose, acetaminophen 24 hr after dose
  AUClast of acetaminophen (μg · min/mL), 24 hr: 2577.72 µg·min/mL
[4]; 10 nmol/kg s.c. single dose, acetaminophen 72 hr after dose
  AUClast of acetaminophen (μg · min/mL), 72 hr: 3354.48 µg·min/mL
[4]; 24 and 72 hours after administration
  gastric emptying (in words): gastric emptying was restored
[4]; 3 hours after administration
  gastric emptying (in words): inhibition of gastric emptying
[5]; 10 nmol/kg s.c. Q3D
  Change in body weight (%) vs. ob/ob control, Maximum efficacy: −10.04 (On Day 25)*** %
  Change in body weight (%) vs. ob/ob control, Efficacy on Day 29: −6.88* %
[5]; 30 nmol/kg s.c. Q3D
  Change in body weight (%) vs. ob/ob control, Maximum efficacy: −11.38 (On Day 25)**** %
  Change in body weight (%) vs. ob/ob control, Efficacy on Day 29: −9.92**** %
